Laboratory results published in patent US12606541B2, “PPARg modulators and methods of use” (Eisai R&D Management Co., Ltd., priority 2020, dated 2026).
pIC50: −log10 of the molar value. Where two headings read alike, the source gives them in different places.

How the values were obtained:
His6-TEV-PPARγ-(234-505) = target: T1, His6-TEV-PPARγ-(234-505) (Homo sapiens, UniProt P37231); assay: TR-FRET Assay to Measure Co-R Peptide Recruitment to PPARγ; type: biochemical; details: Co-R peptide (SMRT-ID2) recruitment; top final concentration 20 μM; read-out: TR-FRET i-Ag; AC50
T1 construct: The His6-TEV-PPARγ-(234-505) protein for assay was expressed and purified; TEV cleavage site (N); made in house
T1 sequence (P37231 234-505): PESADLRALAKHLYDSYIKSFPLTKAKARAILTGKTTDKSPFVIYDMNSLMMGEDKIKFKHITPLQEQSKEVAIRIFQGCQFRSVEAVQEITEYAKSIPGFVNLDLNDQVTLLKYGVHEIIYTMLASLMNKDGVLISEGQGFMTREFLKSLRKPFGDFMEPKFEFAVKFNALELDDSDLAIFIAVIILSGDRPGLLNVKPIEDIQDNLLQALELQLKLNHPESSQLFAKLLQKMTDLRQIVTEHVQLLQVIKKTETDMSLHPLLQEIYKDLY
How it was run: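 Corepressor recruitment is measured by adding terbium-labeled anti-His antibody and FITC SMRT-ID2 peptide, at 5 and 200 nM final, after a 20-minute room-temperature protein–compound incubation. After one further hour, signal is converted to percent response between DMSO and 500 nM T0070907 wells.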

UM-UC-9 engineered cells = assay: Cell proliferation / short-term viability assay, CellTiter-Glo 144 h; type: cell-based, human; details: read-out: CTGlo 144 h UMUC9.5, G150
Procedure: Cell Seeding for Proliferation Assay
UM-UC-9 engineered cells were cultured in Dulbecco's Modified Eagle Medium (DMEM) supplemented with 10% FBS, 25 mM glucose (high glucose), 4.0 mM L-glutamine, 2.0 mM GlutaMAX™, 1.0 mM pyruvate, 1.0% non-essential amino acids (NEAA) in a 95% humidified incubator at 37° C. with 5% CO2. Cell banks of UM-UC-9 engineered assay-ready cells (ARCs) were prepared from a very active growth stage. Vials of ARCs containing approximately 5×10^6 cells per vial were stored in liquid nitrogen vapor phase cryostorage until use.
For making assay plates, ARCs were recovered from cryostorage, strained in a […] cell strainer, verified for cell viability >90% and counted using a cell counter (Cellometer Auto 1000, Nexelom). Each cell line was seeded into 384-well plates (50 μl/well) using DMEM medium at a density previously determined to be in log growth phase 7 days post-seeding (500 cells/well) using a bulk reagent dispenser (Multidrop™ Combi, Thermo Scientific) with a large-bore plastic-tip cassette pre-sanitized with 70% ethanol. One plate of cells was designated as the pretreatment time-zero (T0) control. Freshly seeded plates were allowed to sit lidded for 30 minutes within a biosafety cabinet for cells to settle distributed within the plate wells uniformly and then placed into an automated incubator (STX110, Liconic) at 37° C., 5% CO2, and 95% relative humidity.
Preparation of Test Compound in Assay-Ready Plate
Compounds were stored in a low-temperature sample archive as 10 mM dimethyl sulfoxide (DMSO) solutions at −20° C. under reduced humidity (−45° C. dew point) and protected from light. All samples in the automated archive are stored in 2D barcoded polypropylene tubes, tracked through a laboratory information management system (LIMS), and have been verified for identity and purity by NMR (Chemistry, H3 Biomedicine) and by LCMS (Analytical Chemistry, H3 Biomedicine) at the time of sample registration. Identity by mass matching and purity are again verified at the time of sample request fulfillment by redundant LCMS methods (acidic and basic separation protocols; Analytical Chemistry, H3 Biomedicine). Samples retrieved from low-temperature archive storage were solubilized by heated sonication (Bransonic® Ultrasonic Bath, Branson), transferred (Microlab Starlet, Hamilton) and serially-diluted (Viaflo Assist, Integra) by low-volume liquid handlers, and tracked in LIMS by automation log files to create a ID barcoded master dose-response plate (MDR) to serve as a standard source for all assay-ready plates (ARP) used within an experiment. ARPs prepared by acoustic transfer (ATS-100, EDC) of nL volumes from the MDR source were heat-sealed (PlateLoc, Agilent) and stored at −20° C. prior to use (<7 days from production). Tracking of liquid transfers via acoustic dispenser log files were used to update the LIMS system for all ARP plate maps.
Measurement of Pretreatment Control Cells and Sample Anti-Proliferative Effects on Treated Cells
On day 0 (pretreatment cells) or day 7 (treated cells), a cell proliferation assay was performed using an automated robotic assay platform (ACell, High-Res Biosolutions). Cell ARP's were removed from incubation, their plate lid discarded, and using a bulk reagent dispenser (Multidrop™ Combi, Thermo Scientific with a small-bore metal-tip cassette) 25 μL (1/2 volume) of Cell Titer-Glo® 2.0 Cell Viability Assay reagent (Promega) was added to wells of columns 1-23 (column 24 will be used as plate background or positive control). Cell ARP's were incubated at room temperature in an automation hotel position for a total of 1.0 minute while the next plate was delivered to the bulk reagent dispenser and then lid-free cell ARP's were returned to incubate at 37° C. for 2.5 hours. […]

| Structure (SMILES) | AC50 (His6-TEV-PPARγ-(234-505)) | pIC50 (UM-UC-9 engineered cells; Homo sapiens, UM-UC-9, 144 h) | pIC50 (UM-UC-9 engineered cells) |
| --- | --- | --- | --- |
| CCOC1(C(F)(F)F)CCC(NC(=O)[C@H]2CCN(C(=O)c3cc(-c4cc(C)ncn4)[nH]n3)C3(CC3)C2)CC1 (mixture of isomers) [Example 308-A, (S)—N-(4-ethoxy-4-(trifluoromethyl)cyclohexyl)-4-(5-(6-methylpyrimidin-4-yl)-1H-pyrazole-3-carbonyl)-4-azaspiro[2.5]octane-7-carboxamide] | 2.8 nM | 8.25 |  |
| CCOC1(C(F)(F)F)CCC(NC(=O)[C@@H]2CCN(C(=O)c3cc(-c4cc(C)ncn4)[nH]n3)C3(CC3)C2)CC1 (mixture of isomers) [Example 308-B, (R)—N-(4-ethoxy-4-(trifluoromethyl)cyclohexyl)-4-(5-(6-methylpyrimidin-4-yl)-1H-pyrazole-3-carbonyl)-4-azaspiro[2.5]octane-7-carboxamide] | 548 nM | 6.00 |  |
| COc1cc(-c2cc(C(=O)N3[C@@H]4CC[C@H]3C[C@H](C(=O)NC3CCC5(CC3)OCCC5(F)F)C4)n[nH]2)c(F)cn1 (mixture of isomers) [Example 320, (1R,3s,5S)—N-(4,4-difluoro-1-oxaspiro[4.5]decan-8-yl)-8-(5-(5-fluoro-2-methoxypyridin-4-yl)-1H-pyrazole-3-carbonyl)-8-azabicyclo[3.2.1]octane-3-carboxamide] | 10.4 nM | 7.53 |  |
| COc1cc(-c2cc(C(=O)N3CCC(C(=O)NCC4CCc5n[nH]cc5C4)CC34CC4)[nH]n2)c(F)cn1 (mixture of isomers) [Example 341, (S)-4-(3-(5-fluoro-2-methoxypyridin-4-yl)-1H-pyrazole-5-carbonyl)-N—(((R)-4,5,6,7-tetrahydro-2H-indazol-5-yl)methyl)-4-azaspiro[2.5]octane-7-carboxamide and (S)-4-(3-(5-fluoro-2-methoxypyridin-4-yl)-1H-pyrazole-5-carbonyl)-N—(((S)-4,5,6,7-tetrahydro-2H-indazol-5-yl)methyl)-4-azaspiro[2.5]octane-7-carboxamide] | 5 nM |  | 7.99 |
| COc1cc(-c2cc(C(=O)N3CCC(C(=O)NCC4CCn5cncc5C4)CC34CC4)[nH]n2)c(F)cn1 (mixture of isomers) [Example 342, (8)-4-(3-(5-fluoro-2-methoxypyridin-4-yl)-1H-pyrazole-5-carbonyl)-N—(((R)-5,6,7,8-tetrahydroimidazo[1,5-a]pyridin-7-yl)methyl)-4-azaspiro[2.5]octane-7-carboxamide and (S)-4-(3-(5-fluoro-2-methoxypyridin-4-yl)-1H-pyrazole-5-carbonyl)-N—(((S)-5,6,7,8-tetrahydroimidazo[1,5-a]pyridin-7-yl)methyl)-4-azaspiro[2.5]octane-7-carboxamide] | 78.3 nM |  | 5.95 |
| COc1cc(-c2cc(C(=O)N3CCC(C(=O)NCC4CCn5c(C)nnc5C4)CC34CC4)[nH]n2)c(F)cn1 (mixture of isomers) [Example 346, (S)-4-(3-(5-fluoro-2-methoxypyridin-4-yl)-1H-pyrazole-5-carbonyl)-NVR)-3-methyl-5,6,7,8-tetrahydro-[1,2,4]triazolo[4,3-a]pyridin-7-yl)methyl)-4-azaspiro[2.5]octane-7-carboxamide and (8)-4-(3-(5-fluoro-2-methoxypyridin-4-yl)-1H-pyrazole-5-carbonyl)-N—(((S)-3-methyl-5,6,7,8-tetrahydro-[1,2,4]triazolo[4,3-a]pyridin-7-yl)methyl)-4-azaspiro[2.5]octane-7-carboxamide] | 371 nM |  | < 5.00 |
| COc1cc(-c2cc(C(=O)N3CCC(NC(=O)C4CCC(O)(C(F)(F)F)CC4)CC34CC4)n[nH]2)c(F)cn1 (mixture of isomers) [Example 347] | 317 nM |  | 5.73 |
| COc1cc(-c2cc(C(=O)N3CCC(C(=O)NCC4CCc5nccn5C4)CC34CC4)n[nH]2)c(F)cn1 (mixture of isomers) [Example 356, (S)-4-(5-(5-fluoro-2-methoxypyridin-4-yl)-1H-pyrazole-3-carbonyl)-N—(((S)-5,6,7,8-tetrahydroimidazo[1,2-a]pyridin-6-yl)methyl)-4-azaspiro[2.5]octane-7-carboxamide and (S)-4-(5-(5-fluoro-2-methoxypyridin-4-yl)-1H-pyrazole-3-carbonyl)-N—(((R)-5,6,7,8-tetrahydroimidazo[1,2-a]pyridin-6-yl)methyl)-4-azaspiro[2.5]octane-7-carboxamide] | 113 nM |  | 5.32 |
| COc1cc(-c2cc(C(=O)N3CCC(C(=O)N[C@H]4CC[C@@](O)(C(F)(F)F)CC4)C[C@@H]3C(F)(F)F)n[nH]2)c(F)cn1 (mixture of isomers) [Example 368, (2R,4R)-1-(5-(5-fluoro-2-methoxypyridin-4-yl)-1H-pyrazole-3-carbonyl)-N-((1r,4R)-4-hydroxy-4-(trifluoromethyl)cyclohexyl)-2-(trifluoromethyl)piperidine-4-carboxamide and (2R,4S)-1-(5-(5-fluoro-2-methoxypyridin-4-yl)-1H-pyrazole-3-carbonyl)-N-((1r,4S)-4-hydroxy-4-(trifluoromethyl)cyclohexyl)-2-(trifluoromethyl)piperidine-4-carboxamide] | 244 nM | 6.30 |  |
| COc1cc(-c2cc(C(=O)N3CC[C@H](C(=O)NCC4CCS(=N)(=O)C4(C)C)CC34CC4)n[nH]2)c(F)cn1 (mixture of isomers) [Example 372-A] | 696 nM | < 5.00 |  |
| COc1cc(-c2cc(C(=O)N3CCC(C(=O)NC(C)c4ncc(F)cc4Cl)CC34CC4)n[nH]2)c(F)cn1 (mixture of isomers) [Example 377, (S)—N—((R)-1-(3-chloro-5-fluoropyridin-2-yl)ethyl)-4-(5-(5-fluoro-2-methoxypyridin-4-yl)-1H-pyrazole-3-carbonyl)-4-azaspiro[2.5]octane-7-carboxamide and (S)—N—((S)-1-(3-chloro-5-fluoropyridin-2-yl)ethyl)-4-(5-(5-fluoro-2-methoxypyridin-4-yl)-1H-pyrazole-3-carbonyl)-4-azaspiro[2.5]octane-7-carboxamide] | 20.2 nM |  | 7.59 |
| COc1cc(-c2cc(C(=O)N3CCC(C(=O)NC4C(C)(C)C(N5CCC(F)(F)C5)C4(C)C)CC34CC4)n[nH]2)c(F)cn1 (mixture of isomers) [Example 378, (S)—N-((1s,3R)-3-(3,3-difluoropyrrolidin-1-yl)-2,2,4,4-tetramethylcyclobutyl)-4-(5-(5-fluoro-2-methoxypyridin-4-yl)-1H-pyrazole-3-carbonyl)-4-azaspiro[2.5]octane-7-carboxamide and (S)—N-((1r,3S)-3-(3,3-difluoropyrrolidin-1-yl)-2,2,4,4-tetramethylcyclobutyl)-4-(5-(5-fluoro-2-methoxypyridin-4-yl)-1H-pyrazole-3-carbonyl)-4-azaspiro[2.5]octane-7-carboxamide] | 130 nM |  | 6.65 |
